Results reported in US11834697B2, “Electrochemical recognition and quantification of cytochrome c oxidase expression in bacteria” (OXFORD UNIVERSITY INNOVATION LIMITED, priority 2017, dated 2023).

Legend:
[1] = tested on: cytochrome c oxidase in B. subtilis; assay: Chronoamperometry of drop-cast bacteria, turnover number per single bacterium; type: cell-based, Bacillus subtilis; details: B. subtilis grown on agar; current at 8 s; 37° C.
Experimental: (§1) For the localized electrochemical recognition of cytochrome c oxidases in bacteria, target cultures were immobilized onto a gold macroelectrode by drop-casting and immersed into a solution of PBS, containing 1.7 mM TMPD^+• (FIG. 3). The radical cation can be reduced electrochemically at the electrode to TMPD, providing the substrate for the target bacteria to oxidise and convert TMPD back to TMPD^+•. The chemical oxidation of TMPD to TMPD^+• can then be observed electrochemically.
A 3 mm (diameter) gold macroelectrode (Alvatek Ltd, UK) was used as the working electrode for all bioelectrochemical measurements. After polishing, sonication of the macroelectrode was applied for 2 minutes to assure removal of alumina powder from the electrode surface. Bacteria were immobilized onto the electrode by drop casting. […] Evaporation was monitored by eye and N2 flow was stopped the moment all liquid was evaporated. […]
As during drop-casting both living and dead bacteria in a solution are deposited at an electrode, flow cytometry measurements were performed to estimate the percentage of living cells in solution that contribute to the electrochemical signal (FIG. 7). […] Taking the electrochemical current during chronoamperometry (measurement point at 8 s), a turnover number was determined. […] As such, a turnover number per single bacterium (Tsb) could be calculated using the equation: […]

[2] = tested on: cytochrome c oxidase in E. coli; assay: as above; type: cell-based, Escherichia coli
Experimental: as §1
A 3 mm (diameter) gold macroelectrode (Alvatek Ltd, UK) was used as the working electrode for all bioelectrochemical measurements. After polishing, sonication of the macroelectrode was applied for 2 minutes to assure removal of alumina powder from the electrode surface. Bacteria were immobilized onto the electrode by drop casting. For this purpose, the macroelectrode was placed in an electrode holder inside a 50 mL falcon tube, keeping it in an upright position. Bacteria suspension was diluted so that all depositions consisted of 3 μL bacteria suspension representing monolayer concentrations of 0.5 to 30. The falcon tube was closed and the bacteria suspension dried under N2 flow. Evaporation was monitored by eye and N2 flow was stopped the moment all liquid was evaporated. The electrode was removed from the holder and was placed in the electrochemical set up. The electrochemical cell remained thermostated to 37° C. throughout the experiments.
Chronoamperometry was carried out immediately after drop-casting of bacteria to minimize cell death at the electrode. […]
E. coli bacteria, cultured under aerobic conditions, were then investigated. […] The enhanced electrochemical signal in the presence of E. coli can also be recorded during cyclic voltammetry. However, due to the small current range detected, scan rates as low as 2 mV s^−1 need to be applied in order to visualize the oxidation process of TMPD by the bacteria. […] Consequently, chronoamperometry measurements were chosen for quantitative analyses. […]

[3] = Cyclic voltammetry of TMPD-BF4 at gold macroelectrode with DigiSim simulation; type: physicochemical
Experimental: [formula] in which C is the concentration, Iss represents the steady state current, F is the Faraday constant, D is the diffusion coefficient and a is the radius of the electroactive surface of the microelectrode), and its electrochemical behaviour was analysed using cyclic voltammetry. […] Various scan rates, ranging from 30 to 300 mV s^−1, were applied. As the singly oxidized form of TMPD, the TMPD^+• radical cation can be reduced to TMPD and oxidized to TMPD^2+: TMPD^+•+e^− ? TMPD (1) TMPD^2++e^− ? TMPD^+• (2)
in which only the first redox reaction is fully reversible,[25] and will be the focus of this method. Using the commercial simulation software DigiSim® (Basi), theoretical curves were fitted to the experimental data.[26-30] […] A diffusion coefficient DTMPD-BF4 of 1.0×10^−5 cm^2 s^−1 was determined for a solution temperature of 37° C. and fixed in the DigiSim® program. Detailed information about the calculation of DTMPD-BF4 can be found below. Following the approach in the literature,[31] the redox reaction (1) was simulated to determine the Butler-Volmer kinetic parameters of TMPD^+• reduction at the macroelectrode and a fitting of the concentration-independent heterogeneous standard electrochemical rate constant (ks), as well as the standard electrode potential E0, was conducted. To account for minor solution changes related to the oxidation of TMPD by oxygen, the initial concentration ratio of TMPD to TMPD^+• was slightly adjusted for each scan without changing the overall shape or position of the simulated curves. This allowed an offset correction for the presented curves and a capacitive contribution of between 10 to 30 μF was attributed. From the simulations, the standard electrochemical rate constant ks was determined to be equal to or greater than 0.025 cm s^−1, and a standard electrode potential E0 of 0.013 (±0.001) V vs. SCE was determined. […]
A diffusion coefficient (DTMPD-BF4) of 1×10^−5 cm^2 s^−1 was found following the reversible Randles-Ševčík method. […] The diffusion coefficient was determined using the equation

| Compound | turnover number per single bacterium (Tsb) [1] | turnover number per single bacterium (Tsb) ([2]; E. coli grown aerobically (exponential phase)) | turnover number per single bacterium (Tsb) ([2]; E. coli grown in broth to the stationary phase) | turnover number per single bacterium (Tsb) ([2]; E. coli grown to the exponential phase (aerobic), current at 8 s) | diffusion coefficient DTMPD-BF4 ([3]; 2.1 mM TMPD-BF4 in PBS pH 7.4, 37° C., Randles-Ševčík, 3 mm gold electrode) | standard electrochemical rate constant ks ([3]; TMPD^+• reduction at gold macroelectrode, fitted by simulation) | standard electrode potential E0 ([3]; TMPD^+•/TMPD couple, fitted by simulation) |
| --- | --- | --- | --- | --- | --- | --- | --- |
| CN(C)c1ccc(N(C)C)cc1 [TMPD, N,N,N′,N′-tetramethyl-para-phenylene diamine] | 9.8 (±0.3)×10^8 L mol^−1 s^−1 | 3.8 (±0.06)×10^8 L mol^−1 s^−1 | 1.8 (±0.3)×10^9 L mol^−1 s^−1 | 3.8 (±0.06)×10^8 L mold s^−1 |  |  |  |
| N,N,N′,N′-tetramethyl-para-phenylene diamine tetrafluoroborate [TMPD-BF4] |  |  |  |  | 1×10^−5 cm^2 s^−1 | ≥ 0.025 cm/s | 0.013 (±0.001) V vs. SCE |
